In patent publication US9511058B2, “Methods for using carboxamide, sulfonamide and amine compounds” (Rigel Pharmaceuticals, Inc., priority 2010, dated 2016):

Target: AMPK
Assay: AMPK activation, enzyme-linked immunosorbent assay
Format: biochemical
Conditions: compounds of Table 1 (Table 6)
Method: Compounds of Table 1 were assayed for their ability to activate AMPK using an enzyme-linked immunosorbent assay.
Compounds of Table 2 were assayed for their ability to activate AMPK using an enzyme-linked immunosorbent assay.
Compounds of Table 3 were assayed for their ability to activate AMPK using an enzyme-linked immunosorbent assay.
Compounds of Table 4 were assayed for their ability to activate AMPK using an enzyme-linked immunosorbent assay.
Compounds of Table 5 were assayed for their ability to activate AMPK using an enzyme-linked immunosorbent assay.

EC50 [nM]	Compound
100 to 500	N#Cc1ccc(N2CCC(Oc3ccc(C(=O)NC4CCN(Cc5ccncc5)CC4)nc3)CC2)cc1 [1-1, 5-(1-(4-cyanophenyl)piperidin-4-yloxy)-N-(1-(pyridin-4-ylmethyl)piperidin-4-yl)picolinamide]
< 100	N#Cc1ccc(CN2CCC(NC(=O)c3ccc(OC4CCN(c5ccc(C#N)cc5)CC4)cn3)CC2)cc1 [1-2, N-(1-(4-cyanobenzyl)piperidin-4-yl)-5-(1-(4-cyanophenyl)piperidin-4-yloxy)picolinamide]
< 100	O=C(NC1CCN(Cc2ccncc2)CC1)c1ccc(OC2CCN(c3ccc(C(F)(F)F)cc3)CC2)cn1 [1-3, N-(1-(pyridin-4-ylmethyl)piperidin-4-yl)-5-(1-(4-(trifluoromethyl)phenyl)piperidin-4-yloxy)picolinamide]
< 100	N#Cc1ccc(CN2CCC(NC(=O)c3ccc(OC4CCN(c5ccc(C(F)(F)F)cc5)CC4)cn3)CC2)cc1 [1-4, N-(1-(4-cyanobenzyl)piperidin-4-yl)-5-(1-(4-(trifluoromethyl)phenyl)piperidin-4-yloxy)picolinamide]
< 100	O=C(NC1CCN(Cc2cccnc2)CC1)c1ccc(OC2CCN(c3ccc(C(F)(F)F)cc3)CC2)cn1 [1-5, N-(1-(pyridin-3-ylmethyl)piperidin-4-yl)-5-(1-(4-(trifluoromethyl)phenyl)piperidin-4-yloxy)picolinamide]
100 to 500	N#Cc1ccc(N2CCC(Oc3ccc(C(=O)NC4CCN(Cc5cccnc5)CC4)nc3)CC2)cc1 [1-6, N-(1-(pyridin-3-ylmethyl)piperidin-4-yl)-5-(1-(4-cyanophenyl)piperidin-4-yloxy)picolinamide]
< 100	COC(=O)c1ccc(CN2CCC(NC(=O)c3ccc(OC4CCN(c5ccc(C#N)cc5)CC4)cn3)CC2)cc1 [1-7, methyl 4-((4-(5-(1-(4-cyanophenyl)piperidin-4-yloxy)picolinamido)piperidin-1-yl)methyl)benzoate]
< 100	COC(=O)c1ccc(CN2CCC(NC(=O)c3ccc(OC4CCN(c5ccc(C(F)(F)F)cc5)CC4)cn3)CC2)cc1 [1-8, methyl 4-((4-(5-(1-(4-(trifluoromethyl)phenyl)piperidin-4-yloxy)picolinamido)piperidin-1-yl)methyl)benzoate]
100 to 500	CC(C)(C)OC(=O)N1CCC(NC(=O)c2ccc(OC3CCN(c4ccc(C(F)(F)F)cc4)CC3)nc2)CC1 [1-9, tert-butyl 4-(6-(1-(4-(trifluoromethyl)phenyl)piperidin-4-yloxy)nicotinamido)piperidine-1-carboxylate]
< 100	O=C(NC1CCN(Cc2ccncc2)CC1)c1ccc(OC2CCN(c3ccc(C(F)(F)F)cc3)CC2)nc1 [1-10, N-(1-(pyridin-4-ylmethyl)piperidin-4-yl)-6-(1-(4-(trifluoromethyl)phenyl)piperidin-4-yloxy)nicotinamide]
< 100	O=C(NC1CCN(Cc2ccc(F)cc2)CC1)c1ccc(OC2CCN(c3ccc(C(F)(F)F)cc3)CC2)nc1 [1-11, N-(1-(4-fluorobenzyl)piperidin-4-yl)-6-(1-(4-(trifluoromethyl)phenyl)piperidin-4-yloxy)nicotinamide]
500 to 1000	CC(C)(C)OC(=O)N1CCC(NC(=O)c2cc(OC3CCN(c4ccc(C(F)(F)F)cc4)CC3)ccn2)CC1 [1-12, tert-butyl 4-(4-(1-(4-(trifluoromethyl)phenyl)piperidin-4-yloxy)picolinamido)piperidine-1-carboxylate]
100 to 500	O=C(NC1CCN(Cc2ccncc2)CC1)c1cc(OC2CCN(c3ccc(C(F)(F)F)cc3)CC2)ccn1 [1-13, N-(1-(pyridin-4-ylmethyl)piperidin-4-yl)-4-(1-(4-(trifluoromethyl)phenyl)piperidin-4-yloxy)picolinamide]
< 100	O=C(NC1CCN(Cc2ccncc2)CC1)c1cncc(OC2CCN(c3ccc(C(F)(F)F)cc3)CC2)c1 [1-14, N-(1-(pyridin-4-ylmethyl)piperidin-4-yl)-5-(1-(4-(trifluoromethyl)phenyl)piperidin-4-yloxy)nicotinamide]
1000 to 5000	CC(C)(C)OC(=O)N1CCC(NC(=O)c2ccnc(OC3CCN(c4ccc(C(F)(F)F)cc4)CC3)c2)CC1 [1-15, tert-butyl 4-(2-(1-(4-(trifluoromethyl)phenyl)piperidin-4-yloxy)isonicotinamido)piperidine-1-carboxylate]
< 100	N#Cc1ccc(CN2CCC(NC(=O)c3cncc(OC4CCN(c5ccc(C(F)(F)F)cc5)CC4)c3)CC2)cc1 [1-17, N-(1-(4-cyanobenzyl)piperidin-4-yl)-5-(1-(4-(trifluoromethyl)phenyl)piperidin-4-yloxy)nicotinamide]
< 100	O=C(NC1CCN(Cc2cccnc2)CC1)c1cncc(OC2CCN(c3ccc(C(F)(F)F)cc3)CC2)c1 [1-18, N-(1-(pyridin-3-ylmethyl)piperidin-4-yl)-5-(1-(4-(trifluoromethyl)phenyl)piperidin-4-yloxy)nicotinamide]

EC50 [nM]	Compound
1000 to 5000	O=C(NC1CCNCC1)c1ccnc(OC2CCN(c3ccc(C(F)(F)F)cc3)CC2)c1 [1-19, N-(piperidin-4-yl)-2-(1-(4-(trifluoromethyl)phenyl)piperidin-4-yloxy)isonicotinamide]
500 to 1000	O=C(NC1CCN(Cc2ccncc2)CC1)c1ccnc(OC2CCN(c3ccc(C(F)(F)F)cc3)CC2)c1 [1-20, N-(1-(pyridin-4-ylmethyl)piperidin-4-yl)-2-(1-(4-(trifluoromethyl)phenyl)piperidin-4-yloxy)isonicotinamide]
100 to 500	N#Cc1ccc(CN2CCC(NC(=O)c3ccnc(OC4CCN(c5ccc(C(F)(F)F)cc5)CC4)c3)CC2)cc1 [1-21, N-(1-(4-cyanobenzyl)piperidin-4-yl)-2-(1-(4-(trifluoromethyl)phenyl)piperidin-4-yloxy)isonicotinamide]
1000 to 5000	O=C(NC1CCN(Cc2ccc(F)cc2)CC1)c1ccnc(OC2CCN(c3ccc(C(F)(F)F)cc3)CC2)c1 [1-22, N-(1-(4-fluorobenzyl)piperidin-4-yl)-2-(1-(4-(trifluoromethyl)phenyl)piperidin-4-yloxy)isonicotinamide]
100 to 500	CC(C)(C)OC(=O)N1CC[C@@H](NC(=O)c2ccc(OC3CCN(c4ccc(C(F)(F)F)cc4)CC3)cn2)C1 [1-23, (R)-tert-butyl 3-(5-(1-(4-(trifluoromethyl)phenyl)piperidin-4-yloxy)picolinamido)pyrrolidine-1-carboxylate]
5000 to 10000	O=C(N[C@@H]1CCNC1)c1ccc(OC2CCN(c3ccc(C(F)(F)F)cc3)CC2)cn1 [1-24, (R)-N-(pyrrolidin-3-yl)-5-(1-(4-(trifluoromethyl)phenyl)piperidin-4-yloxy)picolinamide]
100 to 500	O=C(N[C@@H]1CCN(Cc2ccncc2)C1)c1ccc(OC2CCN(c3ccc(C(F)(F)F)cc3)CC2)cn1 [1-25, (R)-N-(1-(pyridin-4-ylmethyl)pyrrolidin-3-yl)-5-(1-(4-(trifluoromethyl)phenyl)piperidin-4-yloxy)picolinamide]
100 to 500	CC(C)(C)OC(=O)N1CC[C@H](NC(=O)c2ccc(OC3CCN(c4ccc(C(F)(F)F)cc4)CC3)cn2)C1 [1-26, (S)-tert-butyl 3-(5-(1-(4-(trifluoromethyl)phenyl)piperidin-4-yloxy)picolinamido)pyrrolidine-1-carboxylate]
> 10000	O=C(N[C@H]1CCNC1)c1ccc(OC2CCN(c3ccc(C(F)(F)F)cc3)CC2)cn1 [1-27, (S)-N-(pyrrolidin-3-yl)-5-(1-(4-(trifluoromethyl)phenyl)piperidin-4-yloxy)picolinamide]
< 100	N#Cc1ccc(CN2CCC(NC(=O)c3cc(OC4CCN(c5ccc(C(F)(F)F)cc5)CC4)ccn3)CC2)cc1 [1-28, N-(1-(4-cyanobenzyl)piperidin-4-yl)-4-(1-(4-(trifluoromethyl)phenyl)piperidin-4-yloxy)picolinamide]
100 to 500	O=C(NC1CCN(Cc2ccc(F)cc2)CC1)c1cc(OC2CCN(c3ccc(C(F)(F)F)cc3)CC2)ccn1 [1-29, N-(1-(4-fluorobenzyl)piperidin-4-yl)-4-(1-(4-(trifluoromethyl)phenyl)piperidin-4-yloxy)picolinamide]
< 100	O=C(N[C@H]1CCN(Cc2ccncc2)C1)c1ccc(OC2CCN(c3ccc(C(F)(F)F)cc3)CC2)cn1 [1-30, (S)-N-(1-(pyridin-4-ylmethyl)pyrrolidin-3-yl)-5-(1-(4-(trifluoromethyl)phenyl)piperidin-4-yloxy)picolinamide]
< 100	N#Cc1ccc(CN2CC[C@H](NC(=O)c3ccc(OC4CCN(c5ccc(C(F)(F)F)cc5)CC4)cn3)C2)cc1 [1-31, (S)-N-(1-(4-cyanobenzyl)pyrrolidin-3-yl)-5-(1-(4-(trifluoromethyl)phenyl)piperidin-4-yloxy)picolinamide]
100 to 500	O=C(N[C@H]1CCN(Cc2ccc(F)cc2)C1)c1ccc(OC2CCN(c3ccc(C(F)(F)F)cc3)CC2)cn1 [1-32, (S)-N-(1-(4-fluorobenzyl)pyrrolidin-3-yl)-5-(1-(4-(trifluoromethyl)phenyl)piperidin-4-yloxy)picolinamide]
500 to 1000	N#Cc1ccc(CN2CC[C@@H](NC(=O)c3ccc(OC4CCN(c5ccc(C(F)(F)F)cc5)CC4)cn3)C2)cc1 [1-33, (R)-N-(1-(4-cyanobenzyl)pyrrolidin-3-yl)-5-(1-(4-(trifluoromethyl)phenyl)piperidin-4-yloxy)picolinamide]
500 to 1000	O=C(N[C@@H]1CCN(Cc2ccc(F)cc2)C1)c1ccc(OC2CCN(c3ccc(C(F)(F)F)cc3)CC2)cn1 [1-34, (R)-N-(1-(4-fluorobenzyl)pyrrolidin-3-yl)-5-(1-(4-(trifluoromethyl)phenyl)piperidin-4-yloxy)picolinamide]
100 to 500	N#Cc1ccc(CN2CCC(NC(=O)c3ccc(OC4CCN(c5ccc(C(F)(F)F)cc5)CC4)nc3)CC2)cc1 [1-35, N-(1-(4-cyanobenzyl)piperidin-4-yl)-6-(1-(4-(trifluoromethyl)phenyl)piperidin-4-yloxy)nicotinamide]
